From patent US20250163054A1, “SUBSTITUTED BICYCLIC HETEROARYL COMPOUNDS USEFUL AS INHIBITORS OF TLR9” (Bristol-Myers Squibb Company, priority 2022, published 2025)

How the values were obtained:
Format in all cases: cell-based
[1] = biological target: T1, human TLR9 (Homo sapiens, UniProt Q9NR96); assay: TLR7/8/9 Inhibition Reporter Assays (TLR9); details: HEK-Blue cells overexpressing human TLR9, SEAP reporter, stimulated with TLR9 ligand ODN2006
T1 construct: host or cells: HEK-Blue cells (HEK293-derived reporter line)
T1 sequence (Q9NR96 26-1032): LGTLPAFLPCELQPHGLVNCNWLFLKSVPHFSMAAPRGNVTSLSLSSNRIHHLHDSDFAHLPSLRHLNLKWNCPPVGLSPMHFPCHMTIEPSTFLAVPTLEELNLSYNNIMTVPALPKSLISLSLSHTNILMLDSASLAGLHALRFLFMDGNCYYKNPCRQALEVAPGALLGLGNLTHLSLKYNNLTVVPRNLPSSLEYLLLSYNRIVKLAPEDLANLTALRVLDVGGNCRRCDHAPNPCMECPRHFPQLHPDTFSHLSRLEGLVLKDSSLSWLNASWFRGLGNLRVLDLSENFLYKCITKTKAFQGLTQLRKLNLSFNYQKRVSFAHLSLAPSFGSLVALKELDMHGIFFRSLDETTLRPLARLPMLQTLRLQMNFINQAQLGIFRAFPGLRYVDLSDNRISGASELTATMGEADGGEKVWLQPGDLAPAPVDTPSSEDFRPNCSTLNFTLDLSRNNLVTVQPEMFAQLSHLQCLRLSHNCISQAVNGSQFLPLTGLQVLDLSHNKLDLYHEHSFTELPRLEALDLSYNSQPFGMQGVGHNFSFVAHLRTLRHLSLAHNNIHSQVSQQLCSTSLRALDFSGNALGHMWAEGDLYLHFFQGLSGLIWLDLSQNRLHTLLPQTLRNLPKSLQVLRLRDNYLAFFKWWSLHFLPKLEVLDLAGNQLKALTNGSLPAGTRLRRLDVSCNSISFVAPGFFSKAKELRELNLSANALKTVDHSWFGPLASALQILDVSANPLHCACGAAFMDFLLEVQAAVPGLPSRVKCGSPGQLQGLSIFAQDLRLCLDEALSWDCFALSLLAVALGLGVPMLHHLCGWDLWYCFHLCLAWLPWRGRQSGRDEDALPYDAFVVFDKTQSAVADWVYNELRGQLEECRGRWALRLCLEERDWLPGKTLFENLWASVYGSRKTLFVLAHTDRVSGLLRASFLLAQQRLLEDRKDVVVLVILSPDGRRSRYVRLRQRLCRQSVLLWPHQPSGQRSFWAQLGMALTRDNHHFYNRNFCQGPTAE
Procedure, shortened: (§1)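 HEK-Blue cells overexpressing human TLR7, TLR8 or TLR9 with NF-κB/AP-1-driven SEAP reporter, pre-treated 60 min with compound ([…]). Stimulated with […] (TLR7), […] (TLR8) or ODN2006 200 nM (TLR9), then 22 h at 37° C; SEAP measured, % inhibition relative to agonist-plus-DMSO and known-inhibitor wells.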

[2] = biological target: T2, human TLR7 (Homo sapiens, UniProt Q9NYK1); assay: TLR7/8/9 Inhibition Reporter Assays (TLR7); details: HEK-Blue cells overexpressing human TLR7, SEAP reporter, stimulated with TLR7 ligand gardiquimod
T2 construct: host or cells: HEK-Blue cells (HEK293-derived reporter line)
T2 sequence (Q9NYK1 27-1049): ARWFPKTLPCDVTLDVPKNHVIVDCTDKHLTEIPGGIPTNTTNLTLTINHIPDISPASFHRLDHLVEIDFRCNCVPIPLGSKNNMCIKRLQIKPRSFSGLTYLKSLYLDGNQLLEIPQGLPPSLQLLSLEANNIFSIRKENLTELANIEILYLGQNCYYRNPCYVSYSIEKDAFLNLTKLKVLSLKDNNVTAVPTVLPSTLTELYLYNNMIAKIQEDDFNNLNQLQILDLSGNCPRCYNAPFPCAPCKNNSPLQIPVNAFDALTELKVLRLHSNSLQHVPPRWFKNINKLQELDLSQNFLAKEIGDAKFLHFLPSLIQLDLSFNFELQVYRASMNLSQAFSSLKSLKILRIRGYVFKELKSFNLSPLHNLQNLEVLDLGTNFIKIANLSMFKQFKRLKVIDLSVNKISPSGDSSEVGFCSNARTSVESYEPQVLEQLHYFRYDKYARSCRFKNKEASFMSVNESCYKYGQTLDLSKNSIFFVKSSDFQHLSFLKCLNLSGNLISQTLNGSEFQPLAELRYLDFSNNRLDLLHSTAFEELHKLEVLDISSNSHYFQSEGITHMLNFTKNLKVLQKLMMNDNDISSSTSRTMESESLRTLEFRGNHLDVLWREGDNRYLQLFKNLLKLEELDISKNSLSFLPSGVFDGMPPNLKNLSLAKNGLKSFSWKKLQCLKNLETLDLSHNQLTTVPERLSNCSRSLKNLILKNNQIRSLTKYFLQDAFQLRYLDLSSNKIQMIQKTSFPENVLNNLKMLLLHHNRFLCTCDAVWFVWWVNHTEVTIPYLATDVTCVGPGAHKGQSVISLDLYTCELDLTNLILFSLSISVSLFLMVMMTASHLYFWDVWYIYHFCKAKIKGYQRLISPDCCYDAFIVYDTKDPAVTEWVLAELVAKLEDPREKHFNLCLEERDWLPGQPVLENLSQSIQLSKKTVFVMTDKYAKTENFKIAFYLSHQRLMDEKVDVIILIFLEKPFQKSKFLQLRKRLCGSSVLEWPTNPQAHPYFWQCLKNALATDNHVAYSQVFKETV
Procedure, shortened: as §1

[3] = biological target: T3, human TLR8 (Homo sapiens, UniProt Q9NR97); assay: TLR7/8/9 Inhibition Reporter Assays (TLR8); details: HEK-Blue cells overexpressing human TLR8, SEAP reporter, stimulated with TLR8 ligand R848
T3 construct: host or cells: HEK-Blue cells (HEK293-derived reporter line)
T3 sequence (Q9NR97 27-1041): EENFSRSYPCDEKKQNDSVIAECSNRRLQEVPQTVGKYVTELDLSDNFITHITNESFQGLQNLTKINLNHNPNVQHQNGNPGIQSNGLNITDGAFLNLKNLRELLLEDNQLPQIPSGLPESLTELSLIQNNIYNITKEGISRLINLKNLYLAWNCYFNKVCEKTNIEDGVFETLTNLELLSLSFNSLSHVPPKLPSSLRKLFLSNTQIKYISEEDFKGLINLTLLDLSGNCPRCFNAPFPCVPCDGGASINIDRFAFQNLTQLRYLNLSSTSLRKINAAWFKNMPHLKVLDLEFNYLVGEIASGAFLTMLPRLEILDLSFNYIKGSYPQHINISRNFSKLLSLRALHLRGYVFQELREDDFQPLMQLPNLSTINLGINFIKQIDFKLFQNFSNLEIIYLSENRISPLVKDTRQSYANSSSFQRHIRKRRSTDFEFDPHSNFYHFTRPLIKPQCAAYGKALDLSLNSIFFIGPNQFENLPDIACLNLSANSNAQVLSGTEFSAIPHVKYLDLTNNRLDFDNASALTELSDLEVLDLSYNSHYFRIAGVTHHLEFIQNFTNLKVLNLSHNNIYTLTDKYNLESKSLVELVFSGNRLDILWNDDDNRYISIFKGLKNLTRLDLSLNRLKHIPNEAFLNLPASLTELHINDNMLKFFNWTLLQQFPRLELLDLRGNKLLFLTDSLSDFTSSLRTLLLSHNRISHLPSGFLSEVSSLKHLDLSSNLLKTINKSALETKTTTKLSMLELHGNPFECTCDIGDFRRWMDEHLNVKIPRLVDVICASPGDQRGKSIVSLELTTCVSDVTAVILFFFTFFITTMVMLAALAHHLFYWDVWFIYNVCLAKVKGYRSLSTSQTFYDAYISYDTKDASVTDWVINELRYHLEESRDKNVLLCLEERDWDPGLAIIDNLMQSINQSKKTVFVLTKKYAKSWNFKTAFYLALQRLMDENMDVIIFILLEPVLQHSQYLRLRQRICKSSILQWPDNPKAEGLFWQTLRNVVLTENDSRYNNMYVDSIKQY
Procedure, shortened: as §1

Structure (SMILES) | IC50 [1] [µM] | IC50 [2] [µM] | IC50 [3] [µM]
Cc1nc(C2CCN(C3CCN(C(C)C)CC3)CC2)cc2c1nc(-c1ccc(S(C)(=O)=O)cc1)n2C [Example 38, 6-(1′-isopropyl-[1,4′-bipiperidin]-4-yl)-1,4-dimethyl-2-(4-(methylsulfonyl)phenyl)-1H-imidazo[4,5-c]pyridine] | 0.13 | 7.7 | > 50
Cc1cc(-c2nc3c(C)nc(-c4ccc(N5CCN(CC6CC6)CC5)cc4)cc3n2C)cc(C)n1 [Example 15, 6-(4-(4-(cyclopropylmethyl)piperazin-1-yl)phenyl)-2-(2,6-dimethylpyridin-4-yl)-1,4-dimethyl-1H-imidazo[4,5-c]pyridine] | 0.46 | 1.1 | 18
COc1ccc(-c2nc3cnc(-c4ccc(N5CCC6(CC5)CN(C(C)C)C6)cc4)cc3n2C2CC2)cc1OC [Example 83, 1-cyclopropyl-2-(3,4-dimethoxyphenyl)-6-(4-(2-isopropyl-2,7-diazaspiro[3.5]nonan-7-yl)phenyl)-1H-imidazo[4,5-c]pyridine] | 0.34 | 1.8 | 12
Cc1cc(-c2nc3c(C)nc(-c4ccc(N5CCN(C6CCC6)CC5)cc4)cc3n2C)cc(C)n1 [Example 16, 6-(4-(4-cyclobutylpiperazin-1-yl)phenyl)-2-(2,6-dimethylpyridin-4-yl)-1,4-dimethyl-1H-imidazo[4,5-c]pyridine] | 0.91 | 2.1 | > 50
Cc1nc(-c2ccc(N3C[C@H]4CN(CC(C)(C)O)C[C@H]4C3)cc2)cc2c1nc(-c1ccc(S(C)(=O)=O)cc1)n2C [Example 93, 1-((3aR,6aS)-5-(4-(1,4-dimethyl-2-(4-(methylsulfonyl)phenyl)-1H-imidazo[4,5-c]pyridin-6-yl)phenyl)hexahydropyrrolo[3,4-c]pyrrol-2(1H)-yl)-2-methylpropan-2-ol] | 0.079 | 0.81 | 2
Cn1c(-c2ccc(S(C)(=O)=O)cc2)nc2cnc(-c3ccc(N4CCC5(CC4)CN(C4COC4)C5)cc3)cc21 [Example 108, 1-methyl-2-(4-(methylsulfonyl)phenyl)-6-(4-(2-(oxetan-3-yl)-2,7-diazaspiro[3.5]nonan-7-yl)phenyl)-1H-imidazo[4,5-c]pyridine] | 0.74 | 29 | > 25

Results, then the compound that gave them:

IC50 [1] [µM] | IC50 [2] [µM] | IC50 [3] [µM] | Structure (SMILES)
0.31 | 11 | > 25 | Cc1nc(-c2ccc(C3CCN(C4CCOCC4)CC3)cc2)cc2c1nc(-c1ccc(S(C)(=O)=O)cc1)n2C [Example 28, 1,4-dimethyl-2-(4-(methylsulfonyl)phenyl)-6-(4-(1-(tetrahydro-2H-pyran-4-yl)piperidin-4-yl)phenyl)-1H-imidazo[4,5-c]pyridine]
0.24 | 7 | > 50 | Cc1nc(-c2ccc(N3CCN(CC(C)C)CC3)cc2)cc2c1nc(-c1ccc(S(C)(=O)=O)cc1)n2C [Example 7, 6-(4-(4-isobutylpiperazin-1-yl)phenyl)-1,4-dimethyl-2-(4-(methylsulfonyl)phenyl)-1H-imidazo[4,5-c]pyridine]
0.061 | 0.59 | 15 | COc1ccc(-c2nc3c(C)nc(-c4ccc(N5CCC6(CC5)CN(C5CCC5)C6)cc4)cc3n2C)cc1OC [Example 80, 6-(4-(2-cyclobutyl-2,7-diazaspiro[3.5]nonan-7-yl)phenyl)-2-(3,4-dimethoxyphenyl)-1,4-dimethyl-1H-imidazo[4,5-c]pyridine]
0.23 | 6.1 | 41 | Cc1nc(-c2ccc(C3CCN(C)CC3)cc2)cc2c1nc(-c1ccc(S(C)(=O)=O)cc1)n2C [Example 26, 1,4-dimethyl-6-(4-(1-methylpiperidin-4-yl)phenyl)-2-(4-(methylsulfonyl)phenyl)-1H-imidazo[4,5-c]pyridine]
0.13 | 1.1 | 3.7 | Cc1nc(-c2ccc(N3CC4(C3)CN(C3CCC3)C4)cc2)cc2c1nc(-c1ccc(S(C)(=O)=O)cc1)n2C [Example 79, 6-(4-(6-cyclobutyl-2,6-diazaspiro[3.3]heptan-2-yl)phenyl)-1,4-dimethyl-2-(4-(methylsulfonyl)phenyl)-1H-imidazo[4,5-c]pyridine]
0.063 | 2.4 | > 50 | Cc1nc(-c2ccc(N3CC4(CCN(CC(C)C)CC4)C3)cc2)cc2c1nc(-c1ccc(S(C)(=O)=O)cc1)n2C [Example 98, 6-(4-(7-isobutyl-2,7-diazaspiro[3.5]nonan-2-yl)phenyl)-1,4-dimethyl-2-(4-(methylsulfonyl)phenyl)-1H-imidazo[4,5-c]pyridine]
0.8 | 3.1 | 3 | Cc1nc(-c2ccc(N3CCN(C(C)C)CC3)cc2)cc2c1nc(-c1ccc(S(C)(=O)=O)cc1)n2C [Example 6, 6-(4-(4-isopropylpiperazin-1-yl)phenyl)-1,4-dimethyl-2-(4-(methylsulfonyl)phenyl)-1H-imidazo[4,5-c]pyridine]
